Source: ChEMBL document CHEMBL4396891, “Recent update on anti-dengue drug discovery” (Eur J Med Chem, 2019)

Columns and labels:
[1] = test system: dengue virus type 2; assay: Antiviral activity against DENV2 […] infected in African green monkey Vero cells by qRT-PCR analysis; format: functional, organism-based
[2] = test system: dengue virus type 1; assay: Antiviral activity against DENV1 infected in human A549 cells after 3 days by focus reduction assay; format: functional, organism-based; conditions: A549, 72 h
[3] = test system: dengue virus type 2; assay: Antiviral activity against DENV2 infected in BHK-21 incubated for 2 hrs followed by compound washout and subsequent replating by plaque-forming assay; format: functional, organism-based; conditions: BHK-21, 2 h
[4] = test system: dengue virus type 2; assay: Antiviral activity against DENV2 infected in human Huh7 cells up to 72 hrs by immunofluorescence analysis; format: functional, organism-based; conditions: Huh-7, 72 h
[5] = test system: Dengue virus; assay: Antiviral activity against Dengue virus infected in human HepG2 cells assessed as viral production at 150 uM after 1 hrs by flow cytometry analysis relative to control; format: functional
[6] = test system: dengue virus type 1; assay: Antiviral activity against DENV1 02-20 infected in African green monkey Vero cells after 3 days by focus reduction assay; format: functional, organism-based; conditions: 02-20, Vero, 72 h
[7] = test system: dengue virus type 4; assay: Antiviral activity against DENV4 09-48 infected in African green monkey Vero cells after 3 days by focus reduction assay; format: functional, organism-based; conditions: 09-48, Vero, 72 h
[8] = test system: dengue virus type 2; assay: Antiviral activity against DENV2 16681 infected in African green monkey Vero cells after 3 days by focus reduction assay; format: functional, organism-based; conditions: Dengue virus, 16681, Vero, 72 h
[9] = test system: dengue virus type 3; assay: Antiviral activity against DENV3 00-40 infected in African green monkey Vero cells after 3 days by focus reduction assay; format: functional, organism-based; conditions: 00-40, Vero, 72 h
[10] = test system: dengue virus type 2; assay: Antiviral activity against DENV2 16681 infected in HEK293 cells after 72 hrs by luciferase reporter gene assay; format: functional, organism-based; conditions: Dengue virus, 16681, HEK293, 72 h
[11] = test system: dengue virus type 2; assay: Antiviral activity against DENV2 infected in BHK-21 assessed as reduction in viral plaque formation by crystal violet staining based assay; format: functional, organism-based
[12] = test system: dengue virus type 3; assay: Antiviral activity against DENV3 infected in African green monkey Vero cells assessed as reduction in viral replication after 4 days by qRT-PCR analysis; format: functional, organism-based; conditions: 96 h
[13] = test system: dengue virus type 4; assay: Antiviral activity against DENV4 infected in African green monkey Vero cells assessed as reduction in viral replication after 4 days by qRT-PCR analysis; format: functional, organism-based; conditions: 96 h
[14] = test system: dengue virus type 1; assay: Antiviral activity against DENV1 infected in African green monkey Vero cells assessed as reduction in viral replication after 4 days by qRT-PCR analysis; format: functional, organism-based; conditions: 96 h
[15] = test system: dengue virus type 2; assay: Antiviral activity against DENV2 infected in African green monkey Vero cells assessed as reduction in viral replication after 4 days by qRT-PCR analysis; format: functional, organism-based; conditions: 96 h
[16] = target: Genome polyprotein (dengue virus type 2, UniProt P29990); assay: Inhibition of His-tagged DENV2 NS2B-NS3 serine protease expressed in Escherichia coli BL21 using Boc-Gly-Arg-Arg-7-amino-4-methylcoumarin as substrate measured after 10 mins by fluorometric assay
[17] = test system: dengue virus type 2; assay: Antiviral activity against DENV2 infected in human Huh7 cells assessed as reduction in virus yield by qRT-PCR analysis; format: functional, organism-based; conditions: Huh-7
[18] = test system: dengue virus type 2; assay: Antiviral activity against DENV2 New Guinea C/PUO-218 by qRT-PCR analysis; format: functional, organism-based

Chain of Genome polyprotein (P29990 1346-1475 limits assumed): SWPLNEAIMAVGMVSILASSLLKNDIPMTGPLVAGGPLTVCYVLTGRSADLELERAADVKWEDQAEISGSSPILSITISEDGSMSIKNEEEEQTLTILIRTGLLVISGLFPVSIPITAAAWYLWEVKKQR
Chain of Genome polyprotein (P29990 1476-2093 limits assumed): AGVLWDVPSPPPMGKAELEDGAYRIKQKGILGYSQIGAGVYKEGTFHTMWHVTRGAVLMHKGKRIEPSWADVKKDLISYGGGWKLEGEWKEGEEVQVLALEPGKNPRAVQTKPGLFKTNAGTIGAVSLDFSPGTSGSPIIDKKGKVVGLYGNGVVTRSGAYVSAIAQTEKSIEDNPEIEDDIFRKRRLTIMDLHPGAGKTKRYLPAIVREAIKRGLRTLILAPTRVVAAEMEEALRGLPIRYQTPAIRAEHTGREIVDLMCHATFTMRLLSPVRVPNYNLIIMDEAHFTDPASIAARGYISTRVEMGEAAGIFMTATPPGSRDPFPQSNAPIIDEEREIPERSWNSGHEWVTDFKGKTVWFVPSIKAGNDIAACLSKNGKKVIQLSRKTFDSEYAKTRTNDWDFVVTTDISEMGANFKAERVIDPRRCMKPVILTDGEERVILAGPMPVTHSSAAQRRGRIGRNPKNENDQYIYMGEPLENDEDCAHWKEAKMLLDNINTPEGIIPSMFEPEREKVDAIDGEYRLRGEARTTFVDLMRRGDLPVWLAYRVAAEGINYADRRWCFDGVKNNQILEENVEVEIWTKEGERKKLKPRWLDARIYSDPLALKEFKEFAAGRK

For CC[C@@H]([C@H](C)O)n1ncn(-c2ccc(N3CCN(c4ccc(OC[C@@H]5CO[C@@](Cn6cncn6)(c6ccc(F)cc6F)C5)cc4)CC3)cc2)c1=O [POSACONAZOLE], which EC50 [1] is on record?
Its EC50 is 4100 nM.

How did the EC50 [2] turn out when CC[C@H]1CN2CCc3c([nH]c4ccccc34)[C@H]2C[C@@H]1/C(=C\OC)C(=O)OC [HIRSUTINE] was run?
The EC50 was 1900 nM.

CCN(CCO)CCCC(C)Nc1ccnc2cc(Cl)ccc12 (stereo not drawn) [HYDROXYCHLOROQUINE] was tested. Which IC50 [3] did it give?
Its IC50 is 10100 nM.

CC(=O)O[C@H]1C[C@H](O[C@H]2[C@@H](O)C[C@H](O[C@H]3[C@@H](O)C[C@H](O[C@H]4CC[C@@]5(C)[C@H](CC[C@@H]6[C@@H]5C[C@@H](O)[C@]5(C)[C@@H](C7=CC(=O)OC7)CC[C@]65O)C4)O[C@@H]3C)O[C@@H]2C)O[C@H](C)[C@H]1O[C@@H]1O[C@H](CO)[C@@H](O)[C@H](O)[C@H]1O [LANATOSIDE C] was tested. Which IC50 [4] did it give?
The IC50 was 190 nM.

C=C[C@H]1CN2CC[C@H]1C[C@H]2[C@H](O)c1ccnc2ccc(OC)cc12 [QUININE] was tested. Which Activity [5] did it give?
Its Activity is 19%.

What does the source list for CC(C)C[C@H]1C(=O)N2CCC[C@H]2[C@]2(O)O[C@](NC(=O)[C@@H]3C=C4c5cccc6[nH]c(Br)c(c56)C[C@H]4N(C)C3)(C(C)C)C(=O)N12 [BROMOCRIPTINE]?
EC50 [6]: 1600 nM; EC50 [7]: 800 to 1200 nM; EC50 [8]: 800 to 1200 nM; EC50 [9]: 800 to 1200 nM

With CN1CCN(C2Cc3ccc(F)cc3Sc3ccc(O)cc32)CC1 (stereo not drawn) as the compound, how does the IC50 [10] read?
Its IC50 is 1200 nM.

Which IC50 [11] does the source give for O=C(Nc1ccc([N+](=O)[O-])cc1Cl)c1cc(Cl)ccc1O [NICLOSAMIDE] here?
Its IC50 is 10000 nM.

Which EC50 [12] does the source give for O=C(Nc1nc2cc(O)c(O)cc2s1)c1ccccc1Sc1ccc(C(F)(F)F)cc1 here?
Its EC50 is 100 nM.

And the EC50 [13]?
Its EC50 is 100 nM.

What about the EC50 [14] of the same compound?
Its EC50 is 100 to 3000 nM.

What about the EC50 [15] of the same compound?
Its EC50 is 100 nM.

And the IC50 [16]?
The IC50 was 3600 nM.

For CC(C)OC(=O)[C@H](C)N[P@](=O)(OC[C@H]1O[C@@H](n2ccc(=O)[nH]c2=O)[C@](C)(F)[C@@H]1O)Oc1ccccc1 [SOFOSBUVIR], which EC50 [17] is on record?
The EC50 was 4900 nM.

And the EC50 [18]?
The EC50 was 400 nM.
